Measured values taken from ChEMBL document CHEMBL5352415, “Discovery of new macrophage M2 polarization modulators as multiple sclerosis treatment agents that enable the inflammation microenvironment remodeling” (Eur J Med Chem, 2022).
Active and inactive are the calls of the source. The rule behind the calls is not given here.

Assays:
Mus musculus [1] = experiment: (§1) Anti-inflammatory activity in MOG (35 to 55 residues)/pertussis toxin-induced experimental autoimmune encephalomyelitis C57BL/6 mouse model assessed as M2 macrophage polarization by measuring increase in Ym1 mRNA expression in CNS at 75 to 150 mg/kg, po administered once daily starting from day 7 to day 20 by qRT-PCR analysis; assay type: functional, organism-based; conditions: dose 75-150 mg/kg, time 14.0 day
[2] = Inhibition of M1 macrophage polarization in C57BL/6 mouse BMDM cells assessed as fold change in IL-6 gene level at 1 uM incubated for 24 hrs by qRT-PCR analysis (reference value: 1); assay type: functional
[3] = AUC(0 to infinity) in ICR mouse at 50 mg/kg, po measured upto 24 hrs by LC/MS analysis; assay type: ADME, organism-based; set-up: dose 50 mg/kg, time < 24 hrs, route po; conditions: in vivo
[4] = Inhibition of M1 macrophage polarization in C57BL/6 mouse BMDM cells assessed as fold change in IL-1beta gene level at 1 uM incubated for 24 hrs by qRT-PCR analysis (reference value: 1); assay type: functional
Mus musculus [5] = experiment: (§2) Anti-inflammatory activity in MOG (35 to 55 residues)/pertussis toxin-induced experimental autoimmune encephalomyelitis C57BL/6 mouse model assessed as T cell activation by measuring decrease in CD44hi CD62Llo T cells in DLN at 75 to 150 mg/kg, po administered once daily starting from day 7 to day 20 by flow cytometric analysis; assay type: functional; set-up: scale not given: the % may be the effect or the level left; conditions: dose 75-150 mg/kg, time 14 day
[6] = target: RAC-beta serine/threonine-protein kinase (Homo sapiens, UniProt P31751); experiment: Inhibition of AKT2 (unknown origin); assay type: binding
Mus musculus [7] = experiment: Anti-inflammatory activity in MOG (35 to 55 residues)/pertussis toxin-induced experimental autoimmune encephalomyelitis C57BL/6 mouse model assessed as attenuation of demyelination in spinal cord at 75 to 150 mg/kg, po administered once daily starting from day 7 to day 20 by luxol fast blue staining based analysis; assay type: functional, organism-based; conditions: dose 75-150 mg/kg, time 14.0 day
[8] = target: T1, RAC-alpha serine/threonine-protein kinase (Mus musculus, UniProt P31750); experiment: Inhibition of Akt phosphorylation at Ser473 in C57BL/6 mouse BMDM cells at 50 to 500 nM incubated for 24 hrs by Western blot analysis; assay type: cell-based; conditions: 0.5 µM, dose 50-500 nM
Mus musculus [9] = experiment: as §1, with “Mrc1” for “Ym1”; assay type: functional, organism-based; conditions: dose 75-150 mg/kg, time 14.0 day
[10] = AUC(0 to t) in ICR mouse at 50 mg/kg, po measured upto 24 hrs by LC/MS analysis; assay type: ADME, organism-based; set-up: dose 50 mg/kg, time < 24 hrs, route po; conditions: in vivo
[11] = Inhibition of LPS-induced M1 macrophage polarization in C57BL/6 mouse BMDM cells assessed as fold change in IL-1beta gene level at 1 uM preincubated with LPS for 24 hrs followed by compound addition and measured after 24 hrs by qRT-PCR analysis (reference value: 44.88 +/- 1.99); assay type: functional
[12] = Half-life in ICR mouse at 50 mg/kg, po measured upto 24 hrs by LC/MS analysis; assay type: ADME, organism-based; conditions: in vivo
[13] = Inhibition of LPS-induced M1 macrophage polarization in C57BL/6 mouse BMDM cells assessed as fold change in IL-6 gene level at 1 uM preincubated with LPS for 24 hrs followed by compound addition and measured after 24 hrs by qRT-PCR analysis (reference value: 36.05 +/- 10.74); assay type: functional
BMDM [14] = experiment: Inhibition of LPS-induced M1 macrophage polarization in C57BL/6 mouse BMDM cells assessed as decrease in IFN-gamma level preincubated with LPS for 24 hrs followed by compound addition and measured after 24 hrs by qRT-PCR analysis; assay type: functional, cell-based; conditions: dose 0.05-2 µM
Mus musculus [15] = experiment: as §2, with “as” for “as T cell activation by measuring”, “F4/80+ CD86+ M1 macrophage” for “CD44hi CD62Llo T cells”, “spleen” for “DLN”; assay type: functional, organism-based; conditions: dose 75-150 mg/kg, time 14.0 day
Mus musculus [16] = experiment: as §2, with “as” for “as T cell activation by measuring”, “F4/80+ CD86+ M1 macrophage” for “CD44hi CD62Llo T cells”; assay type: functional, organism-based; conditions: dose 75-150 mg/kg, time 14.0 day
Mus musculus [17] = experiment: Anti-inflammatory activity in MOG (35 to 55 residues)/pertussis toxin-induced experimental autoimmune encephalomyelitis C57BL/6 mouse model assessed as decrease in disease progression by measuring cumulative score at 75 to 150 mg/kg, po administered once daily starting from day 7 to day 20; assay type: functional, organism-based; conditions: dose 75-150 mg/kg, time 14.0 day
Mus musculus [18] = experiment: (§3) Anti-inflammatory activity in MOG (35 to 55 residues)/pertussis toxin-induced experimental autoimmune encephalomyelitis C57BL/6 mouse model assessed as inhibition of CD4+ T cell differentiation by measuring reduction in Th1 (IFN-gamma+) cells in spleen administered orally once daily starting from day 7 to day 20 by flow cytometric analysis; assay type: functional, organism-based; conditions: dose 75-150 mg/kg, route po, time 14.0 day
Mus musculus [19] = experiment: as §1, with “inhibition of M1” for “M2”, “decrease” for “increase”, “IL-6” for “Ym1”; assay type: functional, organism-based; conditions: dose 75-150 mg/kg, time 14.0 day
[20] = Inhibition of M1 macrophage polarization in C57BL/6 mouse BMDM cells assessed as fold decrease in Inos gene level at 1 uM incubated for 24 hrs by qRT-PCR analysis (reference value: 1); assay type: functional
Mus musculus [21] = experiment: Anti-inflammatory activity in MOG (35 to 55 residues)/pertussis toxin-induced experimental autoimmune encephalomyelitis C57BL/6 mouse model assessed as increase in F4/80+ CD206+ M2 macrophage in spleen at 75 to 150 mg/kg, po administered once daily starting from day 7 to day 20 by flow cytometric analysis; assay type: functional; conditions: dose 75-150 mg/kg, time 14 day
[22] = target: T1, RAC-alpha serine/threonine-protein kinase; experiment: Inhibition of LPS-induced Akt phosphorylation at Ser473 in C57BL/6 mouse BMDM cells at 50 to 500 nM incubated for 24 hrs by Western blot analysis; assay type: cell-based; conditions: 0.5 µM, dose 50-500 nM
Mus musculus [23] = experiment: Anti-inflammatory activity in MOG (35 to 55 residues)/pertussis toxin-induced experimental autoimmune encephalomyelitis C57BL/6 mouse model assessed as decrease in infiltrated inflammatory cells administered orally once daily starting from day 7 to day 20 by H&E staining based analysis; assay type: functional, organism-based; conditions: dose 75-150 mg/kg, route po, time 14.0 day
[24] = Tmax in ICR mouse at 50 mg/kg, po measured upto 24 hrs by LC/MS analysis; assay type: ADME, organism-based; conditions: in vivo
Mus musculus [25] = experiment: as §2, with “spleen” for “DLN”; assay type: functional; set-up: scale not given: the % may be the effect or the level left; conditions: dose 75-150 mg/kg, time 14 day
Mus musculus [26] = experiment: as §3, with “Th17 (Il-4+)” for “Th1 (IFN-gamma+)”, “DLN” for “spleen”; assay type: functional, organism-based; conditions: dose 75-150 mg/kg, route po, time 14.0 day
BMDM [27] = experiment: Inhibition of LPS-induced M1 macrophage polarization in C57BL/6 mouse BMDM cells assessed as decrease in Inos gene level preincubated with LPS for 24 hrs followed by compound addition and measured after 24 hrs by qRT-PCR analysis; assay type: functional, cell-based; conditions: dose 0.05-2 µM
Mus musculus [28] = experiment: as §1, with “Arg1” for “Ym1”; assay type: functional, organism-based; conditions: dose 75-150 mg/kg, time 14.0 day
Mus musculus [29] = experiment: Anti-inflammatory activity in MOG (35 to 55 residues)/pertussis toxin-induced experimental autoimmune encephalomyelitis C57BL/6 mouse model assessed as decrease in disease progression by measuring clinical score at 75 to 150 mg/kg, po administered once daily starting from day 7 to day 20; assay type: functional, organism-based; conditions: dose 75-150 mg/kg, time 14.0 day
[30] = Induction of M2 macrophage polarization in C57BL/6 mouse BMDM cells assessed as fold increase in Arg1 gene level at 1 uM incubated for 24 hrs by qRT-PCR analysis; assay type: functional

T1 sequence (P31750 whole entry): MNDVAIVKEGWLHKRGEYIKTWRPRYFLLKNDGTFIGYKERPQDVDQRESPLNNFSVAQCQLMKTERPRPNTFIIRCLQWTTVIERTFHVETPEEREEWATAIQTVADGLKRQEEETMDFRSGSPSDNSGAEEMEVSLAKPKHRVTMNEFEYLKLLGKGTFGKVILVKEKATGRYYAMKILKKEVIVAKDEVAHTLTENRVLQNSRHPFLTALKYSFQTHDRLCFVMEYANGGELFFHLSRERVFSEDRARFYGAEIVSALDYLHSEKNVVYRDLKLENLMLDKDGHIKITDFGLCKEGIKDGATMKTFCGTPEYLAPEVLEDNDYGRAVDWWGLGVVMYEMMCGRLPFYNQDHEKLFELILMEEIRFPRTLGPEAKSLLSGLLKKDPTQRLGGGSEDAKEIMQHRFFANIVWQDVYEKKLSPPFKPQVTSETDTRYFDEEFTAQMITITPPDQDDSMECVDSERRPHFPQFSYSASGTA
RAC-beta serine/threonine-protein kinase, sequence (P31751 whole entry, the tested form may be a part): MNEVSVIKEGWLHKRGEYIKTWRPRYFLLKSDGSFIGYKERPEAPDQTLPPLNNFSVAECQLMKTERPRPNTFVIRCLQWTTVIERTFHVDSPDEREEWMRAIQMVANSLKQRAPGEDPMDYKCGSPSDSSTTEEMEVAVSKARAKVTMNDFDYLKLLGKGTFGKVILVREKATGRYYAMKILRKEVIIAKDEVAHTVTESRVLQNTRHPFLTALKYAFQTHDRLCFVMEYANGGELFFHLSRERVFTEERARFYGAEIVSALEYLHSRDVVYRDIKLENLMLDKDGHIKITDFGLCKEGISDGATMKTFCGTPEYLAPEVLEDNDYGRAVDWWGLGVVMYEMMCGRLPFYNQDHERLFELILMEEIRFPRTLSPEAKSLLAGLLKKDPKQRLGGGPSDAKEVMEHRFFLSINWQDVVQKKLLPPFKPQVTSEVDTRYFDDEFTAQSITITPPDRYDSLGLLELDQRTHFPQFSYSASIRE

## Cl.Cn1ncc(Br)c1-c1ccc(C(=O)N[C@@H]2CNCC[C@H]2c2ccc(F)c(F)c2)cc1C1CC1
Mus musculus [1]
  Activity: Active
[2]
  fold change (FC): 2.22
[3]
  AUC(0-inf): 27900 ng·h/mL
[4]
  fold change (FC): 4.15
Mus musculus [5]
  Activity: 29%
[6]
  IC50: > 1000 nM
Mus musculus [7]
  Activity: Active
[8]
  inhibition (INH): Not Active
Mus musculus [9]
  Activity: Active
[10]
  AUC(0-t) at 24 h: 27600 ng·h/mL
[11]
  fold change (FC): 71.77
[12]
  half-life: 13.7 h
[13]
  fold change (FC): 69.99
BMDM [14]
  inhibition: Dose-Dependent Effect
Mus musculus [15]
  Activity: Active
Mus musculus [16]
  Activity: Active
Mus musculus [17]
  Activity: Active
Mus musculus [18]
  Activity: Dose-Dependent Effect
Mus musculus [19]
  Activity: Active
[20]
  fold change (FC): 0.49
Mus musculus [21]
  Activity: 12.4%
[22]
  inhibition (INH): Not Active
Mus musculus [23]
  Activity: Dose-Dependent Effect
[24]
  Tmax: 4 h
Mus musculus [25]
  Activity: 19%
Mus musculus [26]
  Activity: Dose-Dependent Effect
BMDM [27]
  inhibition: Dose-Dependent Effect
Mus musculus [28]
  Activity: Active
Mus musculus [29]
  Activity: Active
[30]
  fold change (FC): 10.28
